In assay [1] the test system is patient-derived primary prostate tumor epithelial cells. Conditions: other primary samples analyzed in the authors' laboratory; cited from earlier work.
Assay [2] has as its target T1, Human ALDH1A3 (Homo sapiens, UniProt P47895).
T1 construct: made in house
T1 sequence (P47895 1-512): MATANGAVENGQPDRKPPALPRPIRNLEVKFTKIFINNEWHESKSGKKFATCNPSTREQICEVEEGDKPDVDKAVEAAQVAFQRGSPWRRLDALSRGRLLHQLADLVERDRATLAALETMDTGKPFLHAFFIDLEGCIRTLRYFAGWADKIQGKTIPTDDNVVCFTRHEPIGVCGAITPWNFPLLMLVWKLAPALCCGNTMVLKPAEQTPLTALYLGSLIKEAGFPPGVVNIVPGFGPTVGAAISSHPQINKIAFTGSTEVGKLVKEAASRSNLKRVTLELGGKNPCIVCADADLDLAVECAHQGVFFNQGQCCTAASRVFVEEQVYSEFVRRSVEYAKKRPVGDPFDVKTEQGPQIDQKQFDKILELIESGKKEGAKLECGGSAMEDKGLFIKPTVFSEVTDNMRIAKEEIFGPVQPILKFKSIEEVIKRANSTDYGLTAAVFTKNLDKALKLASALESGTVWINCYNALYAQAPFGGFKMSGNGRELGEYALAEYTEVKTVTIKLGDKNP
As to the kind of experiment: Inhibition screening, single point at 10 μM, ALDH1A3. It counts as biochemical. Conditions: 10 μM compound; hexanal as substrate (Figure S1). As for the experimental part: Human ALDH1A1, ALDH1A3, and ALDH3A1 were cloned and recombinantly expressed from the pET-30 Xa/LIC vector. Protein purification was achieved by affinity chromatography on a nickel-charged chelating Sepharose Fast Flow 5-mL column (His Trap column, Cytiva), which specifically binds the protein due to its N-terminal (His)6 tag, using an ÄKTA FPLC system (Cytiva), as previously described.[55] Enzymes including the His tag were stored at −80 °C in 20 mM Tris/HCl and 0.5 M NaCl, pH 8.0, until use. […] Activity under standard conditions was measured fluorimetrically at 25 °C using a Cary Eclipse (Varian) fluorimeter to follow the purification procedure and to check the enzyme concentration before each kinetic experiment. The fluorescence of NADH was characterized at 460 nm with excitation at 340 nm, and 5 μM NAD(P)H was added as an internal standard to obtain the absolute reaction rates.[55] Standard activity was measured at saturating concentrations of substrate using 30 μM hexanal (ALDH1A1), 250 μM hexanal (ALDH1A3), or 250 μM 4-NBA (ALDH3A1). […]
All compounds tested were dissolved in DMSO and assayed at a final concentration of 1% (v/v) DMSO. […] Alternatively, the enzymatic activity was measured in a Varian Cary 400 UV–vis spectrophotometer, by monitoring the increase in the absorbance of NAD(P)H at 340 nm (ε = 6.22 mM^–1·cm^–1) or in a Cary Eclipse Varian fluorimeter, as described above. […]

The target in a further assay is T2, Human ALDH1A1 (Homo sapiens, UniProt P00352).
T2 construct: made in house
T2 sequence (P00352 1-501): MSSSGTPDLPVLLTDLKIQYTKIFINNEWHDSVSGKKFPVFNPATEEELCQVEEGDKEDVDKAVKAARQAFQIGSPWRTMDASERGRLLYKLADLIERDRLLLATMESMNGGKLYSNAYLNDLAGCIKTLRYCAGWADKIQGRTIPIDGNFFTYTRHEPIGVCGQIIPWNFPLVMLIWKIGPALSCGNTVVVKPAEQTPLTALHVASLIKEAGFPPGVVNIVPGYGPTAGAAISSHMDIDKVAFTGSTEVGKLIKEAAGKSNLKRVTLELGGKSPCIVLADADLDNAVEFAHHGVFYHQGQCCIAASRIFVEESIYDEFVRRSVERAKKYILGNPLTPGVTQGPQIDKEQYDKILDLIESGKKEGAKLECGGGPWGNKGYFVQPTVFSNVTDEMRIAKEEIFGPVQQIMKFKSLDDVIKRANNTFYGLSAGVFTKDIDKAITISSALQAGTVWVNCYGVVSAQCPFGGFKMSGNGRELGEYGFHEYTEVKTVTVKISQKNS
Put plainly: DEAB analogues as substrates of ALDH1A1. Conditions: 10 μM compound as substrate, relative to activity with 10 μM hexanal (Figure S2). It counts as biochemical. As for the experimental part:
(§1) Human ALDH1A1, ALDH1A3, and ALDH3A1 were cloned and recombinantly expressed from the pET-30 Xa/LIC vector. Protein purification was achieved by affinity chromatography on a nickel-charged chelating Sepharose Fast Flow 5-mL column (His Trap column, Cytiva), which specifically binds the protein due to its N-terminal (His)6 tag, using an ÄKTA FPLC system (Cytiva), as previously described.[55] Enzymes including the His tag were stored at −80 °C in 20 mM Tris/HCl and 0.5 M NaCl, pH 8.0, until use. Reaction buffers were as follows: ALDH1A1 was assayed in 50 mM HEPES, 0.5 mM EDTA, and 0.5 mM DTT, pH 8.0; ALDH1A3 was assayed in 50 mM HEPES, 30 mM MgCl2, and 5 mM DTT, pH 8.0; and ALDH3A1 was assayed in 50 mM Tris–HCl and 5 mM DTT, pH 8.0. Activity under standard conditions was measured fluorimetrically at 25 °C using a Cary Eclipse (Varian) fluorimeter to follow the purification procedure and to check the enzyme concentration before each kinetic experiment. The fluorescence of NADH was characterized at 460 nm with excitation at 340 nm, and 5 μM NAD(P)H was added as an internal standard to obtain the absolute reaction rates.[55] Standard activity was measured at saturating concentrations of substrate using 30 μM hexanal (ALDH1A1), 250 μM hexanal (ALDH1A3), or 250 μM 4-NBA (ALDH3A1). NAD^+ was 500 μM for ALDH1A1 and ALDH1A3, and NADP^+ was 1 mM for ALDH3A1.
According to their structure with a carbonyl group, compounds were tested for their substrate properties against ALDH1A1, ALDH1A3, and ALDH3A1. […] Results are expressed as the percentage of activity at 10 μM versus the activity at 10 μM of their standard substrate (hexanal or 4-NBA). Values are expressed as the mean ± SE.

Assay [3] concerns the target T1, Human ALDH1A3. As to the kind of experiment: ALDH1A3 inhibition, IC50, Ki and type of inhibition. Particulars: 6 μM hexanal as substrate; mean ± SE. It counts as biochemical. As for the experimental part:
Human ALDH1A1, ALDH1A3, and ALDH3A1 were cloned and recombinantly expressed from the pET-30 Xa/LIC vector. Protein purification was achieved by affinity chromatography on a nickel-charged chelating Sepharose Fast Flow 5-mL column (His Trap column, Cytiva), which specifically binds the protein due to its N-terminal (His)6 tag, using an ÄKTA FPLC system (Cytiva), as previously described.[55] Enzymes including the His tag were stored at −80 °C in 20 mM Tris/HCl and 0.5 M NaCl, pH 8.0, until use. Reaction buffers were as follows: ALDH1A1 was assayed in 50 mM HEPES, 0.5 mM EDTA, and 0.5 mM DTT, pH 8.0; […] Activity under standard conditions was measured fluorimetrically at 25 °C using a Cary Eclipse (Varian) fluorimeter to follow the purification procedure and to check the enzyme concentration before each kinetic experiment. […] In order to determine the IC50 values, reaction rates were determined at various concentrations of inhibitor at a fixed concentration of substrate. […] Values are expressed as the mean ± SE. […] The data of enzymatic activities at different inhibitor concentrations were fitted to the Michaelis–Menten equation to determine the values of Km and Vmax. Next, results were fitted to the equations for competitive, given by [drawing 3]; noncompetitive, given by [drawing 4]; uncompetitive, given by [drawing 5]; and mixed, given by [drawing 6] .[56] The type of inhibition was selected based on the lowest error value. Parameters were expressed as the mean ± SE.

Another assay deals with PC3. As to the kind of experiment: MTT chemosensitivity assay, PC3. It counts as cell-based, human. Conditions: Homo sapiens, PC-3, 96 h exposure, ± SD, at least three independent experiments. As for the experimental part: (§2) MTT (3-(4, 5-dimethyl-2-thiazolyl)-2, 5-diphenyl-2H-tetrazolium bromide) assay was used to determine cell viability.[64] Immortalized PCa cells (PC-3, Du-145, and LNCaP) were seeded in 96-well plates and allowed to adhere overnight at 37 °C, 5% CO2, and 100% humidity. […] After 96 h of exposure, 200 μL of MTT (Sigma) solution (0.5 mg/mL) was added to each well and incubated at 37 °C for 4 h. The formazan crystals were dissolved in DMSO (Sigma), and the absorbance was read using a microplate reader (Multiskan EX; Thermo Fisher Scientific) at 540 nm. Data analysis was performed using Microsoft Excel 2013 and GraphPad Prism software.

Assay [4] addresses T3, Human ALDH3A1 (Homo sapiens, UniProt P30838).
T3 construct: made in house
T3 sequence (P30838 1-453): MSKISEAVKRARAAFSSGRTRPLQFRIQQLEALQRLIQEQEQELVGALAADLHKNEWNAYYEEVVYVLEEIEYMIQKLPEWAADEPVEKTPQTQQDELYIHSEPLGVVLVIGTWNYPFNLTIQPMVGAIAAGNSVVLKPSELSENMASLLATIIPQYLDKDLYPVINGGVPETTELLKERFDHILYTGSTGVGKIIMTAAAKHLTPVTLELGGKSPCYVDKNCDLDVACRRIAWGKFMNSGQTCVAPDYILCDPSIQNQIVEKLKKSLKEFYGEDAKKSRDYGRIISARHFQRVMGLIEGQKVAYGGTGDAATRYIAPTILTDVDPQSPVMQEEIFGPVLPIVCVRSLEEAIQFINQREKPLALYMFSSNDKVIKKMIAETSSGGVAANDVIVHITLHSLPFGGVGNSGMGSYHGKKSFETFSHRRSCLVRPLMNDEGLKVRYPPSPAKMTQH
Put plainly: ALDH3A1 inhibition, IC50, Ki and type of inhibition. It counts as biochemical. Particulars: measured at a saturating substrate concentration (4-NBA); mean ± SE.

Another assay deals with DU145. As to the kind of experiment: MTT chemosensitivity assay, DU145. Format: cell-based, human. Particulars: Homo sapiens, DU-145, 96 h exposure, ± SD, at least three independent experiments. As for the experimental part: as §2
For orientation: Tetrazolium assays rely on reduction of a dye to a coloured formazan, in cell work by metabolically active cells.

The test system of the next assay is LNCaP. Put plainly: MTT chemosensitivity assay, LNCaP. It counts as cell-based, human. Conditions: Homo sapiens, LNCaP, 96 h exposure, ± SD, at least three independent experiments. As for the experimental part: as §2
The target in assay [5] is T3, Human ALDH3A1. As to the kind of experiment: ALDH3A1 inhibition, IC50, Ki and type of inhibition. It counts as biochemical. Conditions: 31 μM 4-NBA as substrate; mean ± SE. As for the experimental part:
as §1
In order to determine the IC50 values, reaction rates were determined at various concentrations of inhibitor at a fixed concentration of substrate. As substrates for ALDH1A1, ALDH1A3, and ALDH3A1, 5 μM hexanal, 6 μM hexanal, and 31 μM 4-NBA, respectively, were used. The IC50 values were calculated by nonlinear fitting of the obtained data to a sigmoidal plot using GraFit 5.0 (Erithacus software), with the following 4-parameter equation [drawing 2] , where y is the specific activity, x is the inhibitor concentration, background is the minimum y value, range is the fitted uninhibited value minus the background, and s is the slope factor. Values are expressed as the mean ± SE.
Activity assays to determine the type of inhibition and Ki value were performed using various substrate and inhibitor concentrations maintaining the same conditions as for the IC50 experiments and using GraFit 5.0 for data processing. The data of enzymatic activities at different inhibitor concentrations were fitted to the Michaelis–Menten equation to determine the values of Km and Vmax. Next, results were fitted to the equations for competitive, given by [drawing 3]; noncompetitive, given by [drawing 4]; uncompetitive, given by [drawing 5]; and mixed, given by [drawing 6] .[56] The type of inhibition was selected based on the lowest error value. Parameters were expressed as the mean ± SE.

The test system of assay [6] is PC3, DU145 and LNCaP prostate cancer cell lines. Put plainly: MTT chemosensitivity assay, panel of three prostate cancer cell lines. Particulars: Homo sapiens, 96 h exposure, read-out: IC50 against three prostate cancer cell lines. It counts as cell-based. As for the experimental part: as §2

As a reminder, the IC50 is the concentration that gives 50% inhibition. As for `CC(=O)O[C@@]12CO[C@@H]1C[C@H](O)[C@@]1(C)C(=O)[C@H](O)C3=C(C)[C@@H](OC(=O)[C@H](O)[C@@H](NC(=O)OC(C)(C)C)c4ccccc4)C[C@@](O)([C@@H](OC(=O)c4ccccc4)[C@H]21)C3(C)C` [docetaxel], the 50% inhibitory concentration (IC50) in [1] was 0.001 µM.
Take `Cc1cc(C=O)ccc1N1CCOCC1` [Compound 27, 3-Methyl-4-morpholinobenzaldehyde]: the “remaining ALDH1A3 activity” value at Human ALDH1A3 [2] stood at 10%.
`CCCN(CCC)c1ccc(C=O)cc1Cl` [Compound 7, 3-Chloro-4-(dipropylamino)benzaldehyde] registered an ALDH1A1 substrate activity on Human ALDH1A1 of 17.9%. In addition, the half-maximal inhibitory concentration (IC50) on Human ALDH1A3 [3] stood at 0.55 ± 0.05 µM; in the assay on PC3, 77 ± 17 µM; against Human ALDH3A1 [4], 13.7 ± 0.3 µM; with DU145 it was 90 ± 27 µM; with LNCaP, 10 ± 3 µM.
On to `CCN(CC)c1ccc(C=O)cc1` [DEAB, 4-(Diethylamino)benzaldehyde, reference compound], for which the concentration for half-maximal inhibition (IC50) was 10.4 ± 1 µM on Human ALDH1A3 [3]; > 200 µM in the assay with PC3; 5.67 ± 0.66 µM at Human ALDH3A1 [5]; > 200 µM with DU145; > 200 µM with LNCaP; > 200 µM in assay [6].
As for `Cc1cc(C=O)ccc1N1CCN(C)CC1` [Compound 24, 3-Methyl-4-(4-methylpiperazin-1-yl)benzaldehyde], the “remaining ALDH1A3 activity” value at Human ALDH1A3 [2] is 45%.

These data come from article PMC9007462 (Journal of Medicinal Chemistry, 2022).
